The target in the experiment is T1, bromodomain BRD4 (44-168), BRD4 (333-460), and BRD4 (1-477 or 44-460) (Homo sapiens, UniProt O60885).
T1 construct: BRD4(44-168), BRD4(333-460), BRD4(44-460), BRD4(1-477), O60885-1; fused on or other part: N-terminal BirA biotinylation motif, biotinylated; The TVMV-cleavable His6 tag is removed, except in some BRD4(44-460) runs detected with anti-His terbium cryptate
The experiment is described as follows: Time Resolved Fluorescence Resonance Energy Transfer (TR-FRET) binding assay. The following applies: one of the FRET assays described.
As to `Cc1noc(C)c1-c1ccc2c3cc(C(=O)N4CC(C)OC(C)C4)ccc3n(Cc3cccc(Cl)c3)c2c1` (stereo not drawn) [Example 13], the half-maximal inhibitory concentration (IC50) (in general, the midpoint of a concentration-inhibition curve) was below 500 nM.
On to `Cc1noc(C)c1-c1cc(C(N)=O)c2c3cc(NCCO)ccc3n(Cc3ccccc3)c2c1` [Example 137, 9-benzyl-2-(3,5-dimethyl-4-isoxazolyl)-6-((2-hydroxyethyl)amino)-9H-carbazole-4-carboxamide], for which the IC50 was below 50 nM.
Compound `CNC(=O)c1cc(-c2c(C)noc2C)cc2c1c1cc(NC)ccc1n2Cc1ccccc1` [Example 133, 9-benzyl-2-(3,5-dimethyl-4-isoxazolyl)-N-methyl-6-(methylamino)-9H-carbazole-4-carboxamide] registered an IC50 below 50 nM.
Turning to `COCCn1c2ccc(C(=O)N3CC(C)OC(C)C3)cc2c2ccc(-c3c(C)noc3C)cc21` (stereo not drawn) [Example 8], the IC50 is below 500 nM.
For `Cc1noc(C)c1-c1cc(C(N)=O)c2c3cc(N4CC(C)(C)COC4=O)ccc3n(Cc3ccccc3)c2c1` [Example 160, 9-benzyl-2-(3,5-dimethyl-4-isoxazolyl)-6-(5,5-dimethyl-2-oxo-1,3-oxazinan-3-yl)-9H-carbazole-4-carboxamide], the 50% inhibitory concentration (IC50) was below 50 nM.
In turn, `CNC(=O)c1cc(-c2c(C)noc2C)cc2c1c1cc(C(=O)N3CC(F)C3)ccc1n2Cc1ccc(Cl)cc1` [Example 102, 9-(4-chlorobenzyl)-2-(3,5-dimethylisoxazol-4-yl)-6-(3-fluoroazetidine-1-carbonyl)-N-methyl-9H-carbazole-4-carboxamide] came in with an IC50 below 50 nM.
Consider `Cc1noc(C)c1-c1cc(C(N)=O)c2c3cc(C(=O)N4CC(F)C4)ccc3n(Cc3ccccc3)c2c1` [Example 65], for which the concentration for half-maximal inhibition (IC50) was below 50 nM.
Turning to `COC(=O)Nc1ccc2c(c1)c1c(C(N)=O)cc(-c3c(C)noc3C)cc1n2Cc1ccccc1` [Example 144, methyl (9-benzyl-5-carbamoyl-7-(3,5-dimethyl-4-isoxazolyl)-9H-carbazol-3-yl)carbamate], the IC50 was below 50 nM.
In turn, `CCNC(=O)c1cc(-c2c(C)noc2C)cc2c1c1cc(N3CCCOC3=O)ccc1n2C(C)c1ccccc1` (stereo not drawn) [Example 167, 2-(3,5-dimethyl-4-isoxazolyl)-N-ethyl-6-(2-oxo-1,3-oxazinan-3-yl)-(1-phenylethyl)-9H-carbazole-4-carboxamide] yielded a concentration for half-maximal inhibition (IC50) below 50 nM.
In turn, `Cc1noc(C)c1-c1cc(C(N)=O)c2c3cc(C(=O)N4CCC(F)C4)ccc3n(C(C)c3ccccc3)c2c1` (stereo not drawn) [Example 84] gave an IC50 below 50 nM.
For the compound `Cc1noc(C)c1-c1cc(C(N)=O)c2c3cc(C(=O)N4CC(C)OC(C)C4)ccc3n(Cc3ccc(C#N)cc3)c2c1` (stereo not drawn) [Example 37], the 50% inhibitory concentration (IC50) is below 50 nM.
As to `Cc1noc(C)c1-c1cc(C(N)=O)c2c3cc(NC(=O)N(C)C)ccc3n(Cc3ccccc3)c2c1` [Example 147, 9-benzyl-6-((dimethylcarbamoyl)amino)-2-(3,5-dimethyl-4-isoxazolyl)-9H-carbazole-4-carboxamide], the IC50 was below 50 nM.
Compound `Cc1noc(C)c1-c1cc(C(N)=O)c2c3cc(N4CCOC4=O)ccc3n(Cc3ccccc3)c2c1` [Example 161, 9-benzyl-2-(3,5-dimethyl-4-isoxazolyl)-6-(2-oxo-1,3-oxazolidin-3-yl)-9H-carbazole-4-carboxamide] returned an IC50 below 50 nM.
The compound `Cc1noc(C)c1-c1cc(C(N)=O)c2c(c1)[nH]c1ccc(N3CCCOC3=O)cc12` [Example 150, 2-(3,5-dimethyl-4-isoxazolyl)-6-(2-oxo-1,3-oxazinan-3-yl)-9H-carbazole-4-carboxamide] returned an IC50 below 500 nM.
The compound `CCNC(=O)c1cc(-c2c(C)noc2C)cc2[nH]c3ccc(N4CCCOC4=O)cc3c12` [Example 154, 2-(3,5-dimethyl-4-isoxazolyl)-N-ethyl-6-(2-oxo-1,3-oxazinan-3-yl)-9H-carbazole-4-carboxamide] had an IC50 below 7500 nM.
`Cc1noc(C)c1-c1ccc2c3cc(C(=O)N4CC(C)OC(C)C4)ccc3n(CC(F)F)c2c1` (stereo not drawn) [Example 7] returned an IC50 below 500 nM.
With `COC(C)(C)c1ccc2c3c(C(N)=O)cc(-c4c(C)noc4C)cc3n([C@H](c3ccccc3)C3CCOCC3)c2c1` [Example 228, 2-(Dimethyl-1,2-oxazol-4-yl)-7-(2-methoxypropan-2-yl)-9-[(S)-oxan-4-yl(phenyl)methyl]-9H-carbazole-4-carboxamide], the half-maximal inhibitory concentration (IC50) was below 50 nM.
With `Cc1noc(C)c1-c1cc(C(N)=O)c2c3cc(C(=O)N4CC(F)C4)ccc3n(CC3CC3)c2c1` [Example 92], the IC50 was below 50 nM.
The compound `Cc1noc(C)c1-c1ccc2c3cc(C(=O)N4CC(C)OC(C)C4)ccc3n(Cc3ccccc3F)c2c1` (stereo not drawn) [Example 16] displayed an IC50 below 7500 nM.
Under `CCCNC(=O)c1cc(-c2c(C)noc2C)cc2c1c1cc(C(=O)N3CC(F)C3)ccc1n2Cc1ccc(F)cc1` [Example 124, 2-(3,5-dimethyl-4-isoxazolyl)-6-((3-fluoro-1-azetidinyl)carbonyl)-9-(4-fluorobenzyl)-N-propyl-9H-carbazole-4-carboxamide] stands below 50 nM; under `Cc1noc(C)c1-c1ccc2c3cc(C(=O)N4CC(C)OC(C)C4)ccc3n(Cc3ccccc3Cl)c2c1` (stereo not drawn) [Example 11], below 500 nM; under `Cc1noc(C)c1-c1cc(C(N)=O)c2c3cc(C(=O)N4CCO[C@@H](C)C4)ccc3n(Cc3ccccc3)c2c1` [Example 57], below 50 nM.
For `Cc1noc(C)c1-c1cc(C(N)=O)c2c3cc(C(=O)N4CC(F)C4)ccc3n(C(C)c3ccccc3C(F)(F)F)c2c1` (stereo not drawn) [Example 89], the IC50 is below 50 nM.
For the compound `Cc1noc(C)c1-c1cc(C(N)=O)c2c3cc(C(=O)N4CC(C)OC(C)C4)ccc3n(Cc3ccccc3Cl)c2c1` (stereo not drawn) [Example 33], the half-maximal inhibitory concentration (IC50) is below 50 nM.
Under `Cc1noc(C)c1-c1cc(C(N)=O)c2c3cc(C(=O)N4CCC4)ccc3n(Cc3ccccc3)c2c1` [Example 71] stands below 50 nM; under `Cc1noc(C)c1-c1cc(C(N)=O)c2c3cc(C(=O)N4CC(F)(F)C4)ccc3n(C(C)c3ccccc3)c2c1` (single isomer, unassigned) [Example 97, 6-((3,3-difluoro-1-azetidinyl)carbonyl)-2-(3,5-dimethyl-4-isoxazolyl)-9-(1-phenylethyl)-9H-carbazole-4-carboxamide], below 50 nM.
On to `Cc1noc(C)c1-c1cc(C(N)=O)c2c3cc(C(=O)N4CC(F)(F)C4)ccc3n(C(C)c3ccccc3)c2c1` (racemic) [Example 96, 6-((3,3-difluoro-1-azetidinyl)carbonyl)-2-(3,5-dimethyl-4-isoxazolyl)-9-(1-phenylethyl)-9H-carbazole-4-carboxamide], for which the IC50 is below 50 nM.
Turning to `Cc1noc(C)c1-c1cc(C(N)=O)c2c3cc(N4CCCCS4(=O)=O)ccc3n(Cc3ccc(F)cc3)c2c1` [Example 175, 2-(3,5-dimethyl-4-isoxazolyl)-6-(1,1-dioxido-1,2-thiazinan-2-yl)-9-(4-fluorobenzyl)-9H-carbazole-4-carboxamide], the 50% inhibitory concentration (IC50) was below 50 nM.
The compound `Cc1nocc1-c1cc(C(N)=O)c2c3cc(C(=O)N4CCOCC4)ccc3n(Cc3ccc(F)cc3)c2c1` [Example 122, 9-(4-fluorobenzyl)-2-(3-methyl-4-isoxazolyl)-6-(4-morpholinylcarbonyl)-9H-carbazole-4-carboxamide] had a half-maximal inhibitory concentration (IC50) below 50 nM.
Consider `Cc1noc(C)c1-c1ccc2c3cc(C(=O)N4CC(C)OC(C)C4)ccc3n(Cc3ccc(Cl)cc3)c2c1` (stereo not drawn) [Example 12], for which the half-maximal inhibitory concentration (IC50) was below 500 nM.
In turn, `Cc1noc(C)c1-c1cc(C(=O)NC(C)C)c2c3cc(C(=O)N4CC(F)C4)ccc3n(Cc3ccc(F)cc3)c2c1` [Example 127, 2-(3,5-dimethyl-4-isoxazolyl)-6-((3-fluoro-1-azetidinyl)carbonyl)-9-(4-fluorobenzyl)-N-isopropyl-9H-carbazole-4-carboxamide] returned an IC50 below 7500 nM.
With `Cc1noc(C)c1-c1cc(C(N)=O)c2c3cc(C(=O)N4CC(F)C4)ccc3n(C(C)c3ccc(F)cc3)c2c1` (stereo not drawn) [Example 91], the IC50 is below 50 nM.
In the case of `Cc1noc(C)c1-c1cc(C(N)=O)c2c3cc(C(=O)N4CC(O)C4)ccc3n(Cc3ccccc3)c2c1` [Example 53], the IC50 is below 50 nM.
Consider `Cc1noc(C)c1-c1cc(C(N)=O)c2c3cc(C(=O)N4CCC(O)CC4)ccc3n(Cc3ccccc3)c2c1` [Example 67], for which the IC50 was below 50 nM.
In turn, `Cc1noc(C)c1-c1cc(C(N)=O)c2c3ccc(C(C)(C)O)c(F)c3n(C(CCC(F)(F)F)c3ccccc3)c2c1` (single isomer, unassigned) [Example 230, 2-(dimethyl-1,2-oxazol-4-yl)-8-fluoro-7-(2-hydroxypropan-2-yl)-9-[4,4,4-trifluoro-1-phenylbutyl]-9H-carbazole-4-carboxamide] registered a half-inhibitory concentration (IC50) below 50 nM.
`Cc1csc(Cn2c3ccc(C(=O)N4CC(C)OC(C)C4)cc3c3c(C(N)=O)cc(-c4c(C)noc4C)cc32)n1` (stereo not drawn) [Example 28]: the IC50 was below 50 nM.
Regarding `Cc1noc(C)c1-c1cc(C(N)=O)c2c3cc(C(=O)N4CC(F)C4)ccc3n(C(C)c3cccc(C(F)(F)F)c3)c2c1` (stereo not drawn) [Example 88], the IC50 was below 50 nM.
Compound `Cc1noc(C)c1-c1cc(C(N)=O)c2c3cc(C(=O)N4CC(C)OC(C)C4)ccc3n(Cc3ncco3)c2c1` (stereo not drawn) [Example 29] registered a half-inhibitory concentration (IC50) below 500 nM.
For `Cc1noc(C)c1-c1cc(C(N)=O)c2c3cc(C(=O)N4CC(F)(F)C4)ccc3n(C(C)c3ccccc3)c2c1` (single isomer, unassigned) [Example 98, 6-((3,3-difluoro-1-azetidinyl)carbonyl)-2-(3,5-dimethyl-4-isoxazolyl)-9-(1-phenylethyl)-9H-carbazole-4-carboxamide], the IC50 is below 50 nM.
Turning to `Cc1noc(C)c1-c1cc(C(N)=O)c2c3cc(C(=O)N4CC(C)OC(C)C4)ccc3n(Cc3ccc(F)cc3)c2c1` (stereo not drawn) [Example 32], the 50% inhibitory concentration (IC50) was below 50 nM.
Compound `Cc1noc(C)c1-c1cc(C(N)=O)c2c3cc(C(=O)N4CC[C@H](F)C4)ccc3n(Cc3ccccc3)c2c1` [Example 59] displayed an IC50 below 50 nM.
For `Cc1noc(C)c1-c1cc(C(N)=O)c2c3cc(C(=O)N4CCOCC4(C)C)ccc3n(Cc3ccccc3)c2c1` [Example 49], the IC50 was below 7500 nM.

The record behind these values is patent US9492460B2, “Carbazole compounds useful as bromodomain inhibitors” (Bristol-Myers Squibb Company, priority 2013, dated 2016).
